# Results from ChEMBL document CHEMBL1146909, “A novel class of positive allosteric modulators of AMPA receptors: design, synthesis, and structure-activity relationships of 3-biphenyl-4-yl-4-cyano-5-ethyl-1-methyl-1H-pyrrole-2-carboxylic acid, LY2059346” (Bioorg Med Chem Lett, 2006).
# Legend:
# Assay type in all cases: functional, cell-based
# Glutamate receptor 2 [1] = molecular target: T1, Glutamate receptor 2 (Homo sapiens, UniProt P42262); test: Activity at human recombinant iGluR2 flip expressed in HEK293 cells measured as change in intracellular calcium ion concentration in presence of glutamate by FLIPR assay
# T1 sequence (P42262 whole entry): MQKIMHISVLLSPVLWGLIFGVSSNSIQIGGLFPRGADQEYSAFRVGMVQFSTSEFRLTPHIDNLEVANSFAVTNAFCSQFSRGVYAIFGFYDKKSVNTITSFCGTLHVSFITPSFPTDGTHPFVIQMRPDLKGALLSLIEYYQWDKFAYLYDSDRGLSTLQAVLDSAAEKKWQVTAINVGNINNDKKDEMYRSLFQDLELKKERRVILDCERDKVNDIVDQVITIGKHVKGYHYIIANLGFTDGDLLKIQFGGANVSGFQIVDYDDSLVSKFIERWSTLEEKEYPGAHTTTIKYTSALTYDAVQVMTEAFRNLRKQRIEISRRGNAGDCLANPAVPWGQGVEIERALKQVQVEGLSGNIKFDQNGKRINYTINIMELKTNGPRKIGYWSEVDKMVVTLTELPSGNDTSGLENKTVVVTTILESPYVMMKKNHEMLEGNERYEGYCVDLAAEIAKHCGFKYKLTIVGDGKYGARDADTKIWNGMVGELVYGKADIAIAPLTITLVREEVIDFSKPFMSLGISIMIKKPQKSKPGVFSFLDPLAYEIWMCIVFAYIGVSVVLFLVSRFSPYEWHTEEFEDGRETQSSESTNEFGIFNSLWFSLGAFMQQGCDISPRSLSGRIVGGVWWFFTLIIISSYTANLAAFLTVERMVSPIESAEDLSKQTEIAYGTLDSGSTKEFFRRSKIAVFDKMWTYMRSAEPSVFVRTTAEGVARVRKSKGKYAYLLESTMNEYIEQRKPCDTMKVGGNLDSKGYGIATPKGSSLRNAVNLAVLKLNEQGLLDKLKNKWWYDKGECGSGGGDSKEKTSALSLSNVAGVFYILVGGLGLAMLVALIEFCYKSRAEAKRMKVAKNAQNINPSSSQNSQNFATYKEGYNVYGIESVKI
# Glutamate receptor 4 [2] = molecular target: T2, Glutamate receptor 4 (Homo sapiens, UniProt P48058); test: Activity at human recombinant iGluR4 flip expressed in HEK293 cells measured as change in intracellular calcium ion concentration in presence of glutamate by FLIPR assay
# T2 sequence (P48058 whole entry): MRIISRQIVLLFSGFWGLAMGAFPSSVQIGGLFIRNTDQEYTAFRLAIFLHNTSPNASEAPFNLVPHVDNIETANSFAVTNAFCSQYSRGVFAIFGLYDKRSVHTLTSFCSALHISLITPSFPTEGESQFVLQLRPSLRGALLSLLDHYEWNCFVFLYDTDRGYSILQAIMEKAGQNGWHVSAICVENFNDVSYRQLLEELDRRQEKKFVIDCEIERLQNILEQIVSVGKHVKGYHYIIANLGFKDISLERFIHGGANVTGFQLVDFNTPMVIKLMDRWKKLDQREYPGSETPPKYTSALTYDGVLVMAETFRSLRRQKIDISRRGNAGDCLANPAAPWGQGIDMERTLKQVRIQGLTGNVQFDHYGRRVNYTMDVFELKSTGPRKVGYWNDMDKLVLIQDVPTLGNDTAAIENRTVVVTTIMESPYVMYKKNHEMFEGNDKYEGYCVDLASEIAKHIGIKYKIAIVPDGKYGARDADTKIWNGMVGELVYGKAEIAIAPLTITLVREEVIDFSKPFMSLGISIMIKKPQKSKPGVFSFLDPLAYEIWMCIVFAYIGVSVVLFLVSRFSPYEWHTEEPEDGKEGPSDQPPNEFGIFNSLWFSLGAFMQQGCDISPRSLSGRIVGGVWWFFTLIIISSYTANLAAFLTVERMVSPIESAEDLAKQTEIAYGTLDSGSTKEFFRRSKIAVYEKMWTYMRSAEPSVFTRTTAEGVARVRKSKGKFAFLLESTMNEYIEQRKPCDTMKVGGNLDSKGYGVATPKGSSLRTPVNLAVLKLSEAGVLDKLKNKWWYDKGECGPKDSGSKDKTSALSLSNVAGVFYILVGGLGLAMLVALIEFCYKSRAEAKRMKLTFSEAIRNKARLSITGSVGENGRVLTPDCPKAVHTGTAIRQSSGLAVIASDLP
# Glutamate receptor 4 [3] = molecular target: T2, Glutamate receptor 4; test: Activity at human recombinant iGluR4 flop expressed in HEK293 cells measured as change in intracellular calcium ion concentration in presence of glutamate by FLIPR assay
# Glutamate receptor 2 [4] = molecular target: T1, Glutamate receptor 2; test: Activity at human recombinant iGluR2 flop expressed in HEK293 cells measured as change in intracellular calcium ion concentration in presence of glutamate by FLIPR assay
EC50 (Glutamate receptor 2 [1]) [nM],EC50 (Glutamate receptor 4 [2]) [nM],EC50 (Glutamate receptor 4 [3]) [nM],EC50 (Glutamate receptor 2 [4]) [nM],SMILES
97,214,1560,309,CSc1sc(C(=O)O)c(-c2ccc(C(C)(C)C)cc2)c1C#N
345,242,2950,1040,CCc1c(C#N)c(-c2ccc(-c3ccc(F)cc3)cc2)c(C(=O)O)n1C
–,619,–,–,CCSc1c(C#N)c(-c2ccc(-c3ccccc3)cc2)c(C(=O)O)n1C
395,631,> 3000,974,CCc1c(C#N)c(-c2ccc(-c3cccc(C#N)c3)cc2)c(C(=O)O)n1C
412,1140,> 3000,1650,CCc1c(C#N)c(-c2ccc(-c3ccc(C)cc3)cc2)c(C(=O)O)n1C
270,790,1180,990,CCc1c(C#N)c(-c2ccc(-c3ccccc3C)cc2)c(C(=O)O)n1C
280,673,386,902,CCc1c(C#N)c(-c2ccc(-c3ccccc3OC)cc2)c(C(=O)O)n1C
391,1050,> 3000,924,CCc1c(C#N)c(-c2ccc(-c3cccc(OC)c3)cc2)c(C(=O)O)n1C
308,532,2390,391,Cc1c(C#N)c(-c2ccc(-c3ccccc3)cc2)c(C(=O)O)n1C
426,223,> 3000,1490,CCc1c(C#N)c(-c2ccc(-c3cccc(F)c3)cc2)c(C(=O)O)n1C
111,80,185,143,CCc1c(C#N)c(-c2ccc(-c3ccccc3F)cc2)c(C(=O)O)n1C
965,2080,> 3000,2130,CCc1c(C#N)c(-c2ccc(-c3cccc(C)c3)cc2)c(C(=O)O)n1C
186,1080,> 3000,900,CCc1c(C#N)c(-c2ccc(-c3cccc(Cl)c3)cc2)c(C(=O)O)n1C
> 3000,> 3000,> 3000,> 3000,CC(C)Sc1c(C#N)c(-c2ccc(-c3ccccc3)cc2)c(C(=O)O)n1C
83,158,146,36,CCOc1ccccc1-c1ccc(-c2c(C#N)c(CC)n(C)c2C(=O)O)cc1
42,225,157,55,CCc1c(C#N)c(-c2ccc(-c3ccccc3Cl)cc2)c(C(=O)O)n1C
82,56,53,73,CCc1c(C#N)c(-c2ccc(-c3ccccc3C#N)cc2)c(C(=O)O)n1C
423,373,> 3000,370,CCc1c(C#N)c(-c2ccc(-c3ccc(C#N)cc3)cc2)c(C(=O)O)n1C
174,394,1300,473,CSc1c(C#N)c(-c2ccc(-c3ccccc3)cc2)c(C(=O)O)n1C
423,738,> 3000,370,CCc1c(C#N)c(-c2ccc(-c3ccc(OC)cc3)cc2)c(C(=O)O)n1C
103,213,1770,398,CCc1c(C#N)c(-c2ccc(-c3ccccc3)cc2)c(C(=O)O)n1C
142,910,> 3000,984,CCc1c(C#N)c(-c2ccc(-c3ccc(Cl)cc3)cc2)c(C(=O)O)n1C
> 3000,679,1690,> 3000,Cn1c(Br)c(C#N)c(-c2ccc(-c3ccccc3)cc2)c1C(=O)O
> 3000,> 3000,> 3000,> 3000,Cn1cc(C#N)c(-c2ccc(-c3ccccc3)cc2)c1C(=O)O

SMILES,EC50 (Glutamate receptor 2 [1]) [nM],EC50 (Glutamate receptor 4 [2]) [nM],EC50 (Glutamate receptor 4 [3]) [nM],EC50 (Glutamate receptor 2 [4]) [nM]
CCc1c(C#N)c(-c2ccc(-c3ccccc3SC)cc2)c(C(=O)O)n1C,57,105,77,32
